Experimental findings from patent EP4603105A1, “PHARMACEUTICAL COMPOSITION CONTAINING CYCLIC COMPOUND HAVING SELECTIVE KRAS INHIBITORY EFFECT AGAINST HRAS AND NRAS” (CHUGAI SEIYAKU KABUSHIKI KAISHA, priority 2022, dated 2024) are described below.

pIC50: −log10 of the molar value.

Assay [1] deals with human lung cancer strain NCI-H441. Type of assay: cell-based. A digest of the protocol: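 Signal came from […] measured per well once the reagent was added. Beforehand, cells were cultured at 37°C and 5% carbon dioxide on a compound series serially diluted in dimethyl sulfoxide.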
A further assay addresses HRAS wild-type protein (Homo sapiens, UniProt P01112). The experiment in a line: Binding to HRAS by surface plasmon resonance (SPR), KD and KD ratio to KRAS. The following applies: ratio of KD for HRAS wild-type protein to KD for KRAS. The essentials:
(§1)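 Measured at 30°C: SPR with GDP-loaded, E. coli-expressed biotin-Avi RAS captured (~100–300 RU), ascending 75 s compound injections, HBS pH 7.4 with GDP, MgCl2, 4% DMSO. KD from 1:1 fit.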
On the technique in general: In SPR one partner is held on a chip, and binding of the other changes the refractive index at the surface.

The target of assay [2] is GDP-bound NRAS wild-type protein (Homo sapiens, UniProt P01111). The experiment in a line: Binding to NRAS by surface plasmon resonance (SPR), KD and KD ratio to KRAS. The following applies: ratio of KD for GDP-bound NRAS wild-type protein to KD for KRAS. A digest of the protocol:
as §1

GDP-bound NRAS wild-type protein, sequence (P01111 whole entry): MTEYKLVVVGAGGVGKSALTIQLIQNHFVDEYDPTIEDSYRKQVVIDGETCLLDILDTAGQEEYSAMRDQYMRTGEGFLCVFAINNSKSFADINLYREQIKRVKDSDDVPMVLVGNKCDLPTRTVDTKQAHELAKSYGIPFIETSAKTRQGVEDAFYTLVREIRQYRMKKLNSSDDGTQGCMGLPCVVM
HRAS wild-type protein, sequence (P01112 whole entry): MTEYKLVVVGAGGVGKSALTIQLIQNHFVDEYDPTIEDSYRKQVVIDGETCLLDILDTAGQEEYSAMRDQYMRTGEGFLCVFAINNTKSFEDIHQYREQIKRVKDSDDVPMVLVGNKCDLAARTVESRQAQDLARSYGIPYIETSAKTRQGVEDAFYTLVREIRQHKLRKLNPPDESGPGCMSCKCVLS

For orientation: pIC50 means the IC50 on a negative log10 scale, so that one unit is a factor of ten. For `CCC[C@H]1C(=O)N[C@@H]([C@@H](C)CC)C(=O)N(C)CC(=O)N(C)[C@H]2C/C=C\CCN(C2=O)[C@@H](Cc2ccc(C(F)(F)F)cc2)C(=O)N(C)CC(=O)N[C@@H](CCc2ccc(CC)c(Cl)c2)C(=O)N2C[C@H](OCC)C[C@H]2C(=O)NC2(CC(C)(C)C2)C(=O)N(C)[C@@H](C(CC)CC)C(=O)N(C)[C@H](C(=O)N(C)C)CC(=O)N1C` [PP2777], the pIC50 in assay [1] was 6.96. In addition, the “HRAS /KRAS” value on HRAS wild-type protein is “A (a compound having 10 or more and less than 20 is denoted as A)”. The “NRAS /KRAS” value in assay [2] is on record as “AA (a compound having 20 or more is denoted as AA)”.

On to `CCC[C@H]1C(=O)N[C@@H]([C@@H](C)CC)C(=O)N(C)CC(=O)N(C)[C@H]2C/C=C\CCN(C2=O)[C@@H](Cc2ccc(C)cc2)C(=O)N(C)CC(=O)N[C@@H](CCc2ccc(CC)c(Cl)c2)C(=O)N2C[C@H](OCC)C[C@H]2C(=O)NC2(CC(C)(C)C2)C(=O)N(C)[C@@H](C2CCCC2)C(=O)N(C)[C@H](C(=O)N(C)C)CC(=O)N1C` [PP2778], for which the negative logarithm of the IC50 (pIC50) in assay [1] is 7.65. Moreover, the “HRAS /KRAS” value on HRAS wild-type protein was “A (a compound having 10 or more and less than 20 is denoted as A)”. In addition, the “NRAS /KRAS” value in assay [2] was “A (a compound having 10 or more and less than 20 is denoted as A)”.

For `CCC[C@H]1C(=O)N[C@@H]([C@@H](C)CC)C(=O)N(C)CC(=O)N(C)[C@H]2C/C=C\CCN(C2=O)[C@@H](Cc2ccc(C(F)(F)F)cc2)C(=O)N(C)CC(=O)N[C@@H](CCc2cc(F)c(C(F)F)c(F)c2)C(=O)N2C[C@H](OCC)C[C@H]2C(=O)NC2(CC(C)(C)C2)C(=O)N(C)[C@@H](C2CCCC2)C(=O)N(C)[C@H](C(=O)N(C)C)CC(=O)N1C` [PP2780], in assay [1], the negative logarithm of the IC50 (pIC50) is 7.75. The “HRAS /KRAS” value at HRAS wild-type protein was “A (a compound having 10 or more and less than 20 is denoted as A)”. For the same compound, the “NRAS /KRAS” value in assay [2] was “A (a compound having 10 or more and less than 20 is denoted as A)”.

Compound `CCC[C@H]1C(=O)N[C@@H]([C@@H](C)CC)C(=O)N(C)CC(=O)N(C)[C@H]2C/C=C\CCN(C2=O)[C@@H](Cc2ccc(C(F)(F)F)cc2)C(=O)N(C)CC(=O)N[C@@H](CCc2cc(F)c(C(F)F)c(F)c2)C(=O)N2C[C@H](OCC)C[C@H]2C(=O)NC2(CC(C)(C)C2)C(=O)N(C)[C@@H](C(CC)CC)C(=O)N(C)[C@H](C(=O)N(C)C)CC(=O)N1C` [PP2781] showed a pIC50 in assay [1] of 7.19. Moreover, the “HRAS /KRAS” value at HRAS wild-type protein is “A (a compound having 10 or more and less than 20 is denoted as A)”. In addition, the “NRAS /KRAS” value in assay [2] is given as “AA (a compound having 20 or more is denoted as AA)”.

The compound `CCC[C@H]1C(=O)N[C@@H]([C@@H](C)CC)C(=O)N(C)CC(=O)N(C)[C@H]2C/C=C\CCN(C2=O)[C@@H](Cc2ccc(C)cc2)C(=O)N(C)CC(=O)N[C@@H](CCc2cc(F)c(C(F)F)c(F)c2)C(=O)N2C[C@H](OCC)C[C@H]2C(=O)NC2(CC(C)(C)C2)C(=O)N(C)[C@@H](C2CCCC2)C(=O)N(C)[C@H](C(=O)N(C)C)CC(=O)N1C` [PP2782] gave a negative logarithm of the IC50 (pIC50) in assay [1] of 7.23. In addition, the “HRAS /KRAS” value on HRAS wild-type protein is “A (a compound having 10 or more and less than 20 is denoted as A)”. Further, the “NRAS /KRAS” value in assay [2] was “A (a compound having 10 or more and less than 20 is denoted as A)”.

As to `CCC[C@H]1C(=O)N[C@@H]([C@@H](C)CC)C(=O)N(C)CC(=O)N(C)[C@H]2C/C=C\CCN(C2=O)[C@@H](Cc2ccc(C(F)(F)F)cc2)C(=O)N(C)CC(=O)N[C@@H](CCc2ccc(Cl)c(C(F)(F)F)c2)C(=O)N2C[C@H](OCC)C[C@H]2C(=O)NC2(CC(C)(C)C2)C(=O)N(C)[C@@H](C2CCCC2)C(=O)N(C)[C@H](C(=O)N(C)C)CC(=O)N1C` [PP2784], the negative-log IC50 (pIC50) in assay [1] was 8.14. The “HRAS /KRAS” value on HRAS wild-type protein is “A (a compound having 10 or more and less than 20 is denoted as A)”. Further, in assay [2], the “NRAS /KRAS” value is “A (a compound having 10 or more and less than 20 is denoted as A)”.

`CCC[C@H]1C(=O)N[C@@H]([C@@H](C)CC)C(=O)N(C)CC(=O)N(C)[C@H]2C/C=C\CCN(C2=O)[C@@H](Cc2ccc(C(F)(F)F)cc2)C(=O)N(C)CC(=O)N[C@@H](CCc2ccc(Cl)c(C(F)(F)F)c2)C(=O)N2C[C@H](OCC)C[C@H]2C(=O)NC2(CC(C)(C)C2)C(=O)N(C)[C@@H](C(CC)CC)C(=O)N(C)[C@H](C(=O)N(C)C)CC(=O)N1C` [PP2785] gave a negative-log IC50 (pIC50) in assay [1] of 7.98. At HRAS wild-type protein, the “HRAS /KRAS” value is “A (a compound having 10 or more and less than 20 is denoted as A)”. Also, the “NRAS /KRAS” value in assay [2] is listed as “AA (a compound having 20 or more is denoted as AA)”.

With `CCC[C@H]1C(=O)N[C@@H]([C@@H](C)CC)C(=O)N(C)CC(=O)N(C)[C@H]2C/C=C\CCN(C2=O)[C@@H](Cc2ccc(C)cc2)C(=O)N(C)CC(=O)N[C@@H](CCc2ccc(Cl)c(C(F)(F)F)c2)C(=O)N2C[C@H](OCC)C[C@H]2C(=O)NC2(CC(C)(C)C2)C(=O)N(C)[C@@H](C2CCCC2)C(=O)N(C)[C@H](C(=O)N(C)C)CC(=O)N1C` [PP2786], the pIC50 in assay [1] is 8.01. For the same compound, the “HRAS /KRAS” value on HRAS wild-type protein is “A (a compound having 10 or more and less than 20 is denoted as A)”. Also, in assay [2], the “NRAS /KRAS” value was “A (a compound having 10 or more and less than 20 is denoted as A)”.

`CCC[C@H]1C(=O)N[C@@H]([C@@H](C)CC)C(=O)N(C)CC(=O)N(C)[C@H]2C/C=C\CCN(C2=O)[C@@H](Cc2ccc(C)cc2)C(=O)N(C)CC(=O)N[C@@H](CCc2ccc(Cl)c(C(F)(F)F)c2)C(=O)N2C[C@H](OCC)C[C@H]2C(=O)NC2(CC(C)(C)C2)C(=O)N(C)[C@@H](C(CC)CC)C(=O)N(C)[C@H](C(=O)N(C)C)CC(=O)N1C` [PP2787] had a pIC50 in assay [1] of 7.66. The “HRAS /KRAS” value at HRAS wild-type protein is “A (a compound having 10 or more and less than 20 is denoted as A)”. In addition, in assay [2], the “NRAS /KRAS” value is “AA (a compound having 20 or more is denoted as AA)”.

In turn, `CCC[C@H]1C(=O)N[C@@H]([C@@H](C)CC)C(=O)N(C)CC(=O)N(C)[C@H]2C/C=C\CCN(C2=O)[C@@H](Cc2ccc(C(F)(F)F)cc2)C(=O)N(C)CC(=O)N[C@@H](CCc2ccc(Cl)c(OC)c2)C(=O)N2C[C@H](OCC)C[C@H]2C(=O)NC2(CC(C)(C)C2)C(=O)N(C)[C@@H](C2CCCC2)C(=O)N(C)[C@H](C(=O)N(C)C)CC(=O)N1C` [PP2788] showed a negative-log IC50 (pIC50) in assay [1] of 7.61. Further, the “HRAS /KRAS” value on HRAS wild-type protein was “A (a compound having 10 or more and less than 20 is denoted as A)”. Moreover, in assay [2], the “NRAS /KRAS” value is “A (a compound having 10 or more and less than 20 is denoted as A)”.

Turning to `CCC[C@H]1C(=O)N[C@@H]([C@@H](C)CC)C(=O)N(C)CC(=O)N(C)[C@H]2C/C=C\CCN(C2=O)[C@@H](Cc2ccc(C(F)(F)F)cc2)C(=O)N(C)CC(=O)N[C@@H](CCc2ccc(Cl)c(OC)c2)C(=O)N2C[C@H](OCC)C[C@H]2C(=O)NC2(CC(C)(C)C2)C(=O)N(C)[C@@H](C(CC)CC)C(=O)N(C)[C@H](C(=O)N(C)C)CC(=O)N1C` [PP2789], in assay [1], the negative-log IC50 (pIC50) is 7.33. Moreover, the “HRAS /KRAS” value at HRAS wild-type protein was “A (a compound having 10 or more and less than 20 is denoted as A)”. Further, the “NRAS /KRAS” value in assay [2] is given as “AA (a compound having 20 or more is denoted as AA)”.

In assay [1], `CCC[C@H]1C(=O)N[C@@H]([C@@H](C)CC)C(=O)N(C)CC(=O)N(C)[C@H]2C/C=C\CCN(C2=O)[C@@H](Cc2ccc(C)cc2)C(=O)N(C)CC(=O)N[C@@H](CCc2ccc(Cl)c(OC)c2)C(=O)N2C[C@H](OCC)C[C@H]2C(=O)NC2(CC(C)(C)C2)C(=O)N(C)[C@@H](C2CCCC2)C(=O)N(C)[C@H](C(=O)N(C)C)CC(=O)N1C` [PP2790] gave a pIC50 of 7.23. For the same compound, the “HRAS /KRAS” value at HRAS wild-type protein is “A (a compound having 10 or more and less than 20 is denoted as A)”. Further, in assay [2], the “NRAS /KRAS” value is “A (a compound having 10 or more and less than 20 is denoted as A)”.
